In patent US11497833B2, “Self-assembling peptides comprising non-Ionic polar amino acids” (3-D Matrix, Ltd., priority 2014, dated 2022):
Peptide text beside a SMILES is read from it.

What was measured:
Assay type in all cases: physicochemical
[1] = Dissolution in deionized water and visual appearance of peptide solution; conditions: deionized water
[2] = Stability to autoclave sterilization, mass spectrometry before and after autoclave; conditions: 121° C. for 25 min, high pressure saturated steam; mass spec before and after; N- and C-terminus not protected
From the text: Sterilization is a very important step in the manufacturing process for all biomaterials, including the self-assembling peptide solutions.

[3] = Atomic Force Microscopy (AFM) morphological study of peptide nano structures; conditions: 100 μM peptide solution on mica, rinsed, air-dried, tapping mode
Protocol: Each sample was left on the mica for about 30 seconds (s) and then rinsed with aliquots of 100 μl of Milli-Q (ultrapure) water to remove unattached peptides. The sample on the mica surface was then air-dried for AFM observation. AFM was performed with Asylum-1 MFP-3D AFM System (Asylum Research, Santa Barbara, Calif.) using a tapping mode. The images utilized an Olympus Si tip (AC240FS). The cantilever's free resonance frequency was 70 kHz.

[4] = Congo Red assay of gel formation in PBS buffer (pH 7.4); conditions: 1% Congo Red in PBS buffer pH 7.4
Protocol: A Congo Red assay was performed to determine gel formation of peptide solutions in a PBS buffer solution (pH 7.4). 100 μl of each gel at varying concentrations were plated on a glass slide. After 30 seconds, 500 μl of a 1% Congo Red solution in PBS buffer (pH 7.4) was added around and on top of each of the gel aliquots and then the excess Congo Red solution was wiped off prior to examination.
Visualization of gel formation determined the success or failure of gelation at each concentration.

[5] = Rheological properties at various concentrations (rheometer, stress sweep); conditions: 37° C., 10 rad/s; for Loss Modulus (G')* / Storage Modulus (G')*: at 1 Pa of oscillation stress
Protocol: The rheological properties of the ST14 (SEQ ID NO:2) were evaluated at various concentrations using a rheometer (AR500, TA Instruments) with 40 mm plates. Peptide solution (700μL) was placed on the rheometer plate and excess solution was gently removed by Kimwipes; measurements were performed after 2 minutes of relaxation time at 37° C. The storage modulus, loss modulus, and viscosity (η′) were measured at 37° C. with the plates placed at a measuring geometry gap of 300 μm, and stress sweep tests were performed at 0.1 Pa˜1000 Pa of oscillation stress with angular frequency at 10 rad/s.

Compound | appearance in solution ([1]; 1 percent w/v to 5 percent w/v) | solution consistency ([1]; 5 percent w/v) | degradation during autoclave treatment [2] | AFM morphology (nano structure) [3] | gel formation ([4]; below 1% peptide) | Max. Viscosity (max η') ([5]; Concentration 1) | Loss Modulus (G')* ([5]; Concentration 1) | Storage Modulus (G')* ([5]; Concentration 1) | Max. Viscosity (max η') ([5]; Concentration 1.5) | Loss Modulus (G')* ([5]; Concentration 1.5) | Storage Modulus (G')* ([5]; Concentration 1.5) | Max. Viscosity (max η') ([5]; Concentration 2) | Loss Modulus (G')* ([5]; Concentration 2) | Storage Modulus (G')* ([5]; Concentration 2) | Max. Viscosity (max η') ([5]; Concentration 2.5) | Loss Modulus (G')* ([5]; Concentration 2.5) | Storage Modulus (G')* ([5]; Concentration 2.5) | solution consistency ([1]; 1 percent w/v to 5 percent w/v) | gel formation ([4]; 0.5% peptide)
CC(O)C(N)C(=O)NC(C(=O)NC(C(=O)NC(C(=O)NC(C(=O)NC(C(=O)NC(C(=O)NC(C(=O)NC(C(=O)NC(C(=O)NC(C(=O)NC(C(=O)NC(C(=O)NC(C(=O)O)C(C)O)C(C)O)C(C)O)C(C)O)C(C)O)C(C)O)C(C)O)C(C)O)C(C)O)C(C)O)C(C)O)C(C)O)C(C)O (stereo not drawn) [Peptide T14, TTTTTTTTTTTTTT] | translucent | formed a thick solution | did not degrade | Aggregates | did not form a gel | – | – | – | – | – | – | – | – | – | – | – | – | – | –
CC(O)C(NC(=O)C(CO)NC(=O)C(NC(=O)C(CO)NC(=O)C(NC(=O)C(CO)NC(=O)C(NC(=O)C(CO)NC(=O)C(NC(=O)C(CO)NC(=O)C(NC(=O)C(CO)NC(=O)C(NC(=O)C(N)CO)C(C)O)C(C)O)C(C)O)C(C)O)C(C)O)C(C)O)C(=O)O (stereo not drawn) [ST14, STSTSTSTSTSTST] (H-STSTSTSTSTSTST-OH; configuration not given here) | translucent | – | did not degrade | – | – | 1.2 Pa-s | 11.4 Pa | 67 Pa | 1.5 Pa-s | 9.8 Pa | 94 Pa | 2.0 Pa-s | 17.3 Pa | 136 Pa | 2.2 Pa-s | 17.1 Pa | 167 Pa | formed thick solutions | did not form a gel
